# Reference: PMC5589090 (PLoS Medicine, 2017)
# Several values for one entry are separate records, joined by “and”; a condition that tells them apart may be missing. Equal entries are not always repeated.
# Tests used:
# DNMT1 = target: T1, DNMT1 (Homo sapiens, UniProt P26358); experiment: DNMT1 protein measurement by flow cytometry of peripheral blood mononuclear cells; type: in vivo
# T1 construct: DNMT1 protein levels were measured by flow cytometric analysis of peripheral blood mononuclear cells; endogenous in cells; host or cells: peripheral blood mononuclear cells of sickle cell disease patients (ex vivo, after in vivo dosing)
# T1 sequence (P26358 whole entry): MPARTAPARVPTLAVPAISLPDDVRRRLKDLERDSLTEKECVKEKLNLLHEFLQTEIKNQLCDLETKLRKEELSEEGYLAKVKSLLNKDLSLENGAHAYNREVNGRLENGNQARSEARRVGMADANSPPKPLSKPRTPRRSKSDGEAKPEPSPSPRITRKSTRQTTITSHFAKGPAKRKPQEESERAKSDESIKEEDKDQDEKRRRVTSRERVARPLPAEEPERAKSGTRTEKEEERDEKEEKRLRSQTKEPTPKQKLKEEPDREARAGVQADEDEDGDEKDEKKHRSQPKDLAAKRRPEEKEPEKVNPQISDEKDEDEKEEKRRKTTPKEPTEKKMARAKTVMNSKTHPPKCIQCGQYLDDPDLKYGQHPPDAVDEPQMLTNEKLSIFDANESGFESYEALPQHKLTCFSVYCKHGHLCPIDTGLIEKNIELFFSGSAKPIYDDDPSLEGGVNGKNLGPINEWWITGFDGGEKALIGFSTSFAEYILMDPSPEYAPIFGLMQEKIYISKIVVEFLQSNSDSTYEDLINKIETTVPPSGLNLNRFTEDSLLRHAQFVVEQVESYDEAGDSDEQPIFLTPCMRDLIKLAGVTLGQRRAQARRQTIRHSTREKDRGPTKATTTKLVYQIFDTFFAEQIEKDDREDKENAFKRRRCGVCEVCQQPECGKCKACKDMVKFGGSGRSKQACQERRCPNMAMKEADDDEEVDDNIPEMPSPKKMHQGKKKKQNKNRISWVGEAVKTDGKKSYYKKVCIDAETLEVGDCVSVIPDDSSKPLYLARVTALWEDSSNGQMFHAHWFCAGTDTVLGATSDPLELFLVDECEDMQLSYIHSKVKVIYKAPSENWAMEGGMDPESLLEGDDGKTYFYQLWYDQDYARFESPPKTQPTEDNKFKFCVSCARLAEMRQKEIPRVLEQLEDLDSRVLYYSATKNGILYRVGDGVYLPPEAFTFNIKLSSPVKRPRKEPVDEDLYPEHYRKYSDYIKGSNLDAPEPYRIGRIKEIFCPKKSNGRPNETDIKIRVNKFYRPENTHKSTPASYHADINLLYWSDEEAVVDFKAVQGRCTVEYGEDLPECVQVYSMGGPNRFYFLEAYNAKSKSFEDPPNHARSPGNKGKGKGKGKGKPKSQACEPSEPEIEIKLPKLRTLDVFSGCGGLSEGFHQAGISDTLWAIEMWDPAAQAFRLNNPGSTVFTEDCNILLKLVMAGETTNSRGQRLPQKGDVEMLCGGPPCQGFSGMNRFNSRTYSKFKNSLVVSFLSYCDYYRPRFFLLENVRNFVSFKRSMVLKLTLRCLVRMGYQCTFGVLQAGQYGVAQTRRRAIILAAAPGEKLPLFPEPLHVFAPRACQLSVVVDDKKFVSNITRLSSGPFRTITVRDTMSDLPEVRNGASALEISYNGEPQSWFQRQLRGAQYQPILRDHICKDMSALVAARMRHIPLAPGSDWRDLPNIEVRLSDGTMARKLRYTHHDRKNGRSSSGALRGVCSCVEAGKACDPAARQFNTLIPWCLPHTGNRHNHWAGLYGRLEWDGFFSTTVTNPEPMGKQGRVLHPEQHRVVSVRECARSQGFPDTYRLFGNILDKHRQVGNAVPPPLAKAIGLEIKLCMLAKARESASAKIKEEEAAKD
# Method: Phlebotomized whole blood was layered over Histopaque. The interface was collected and washed with phosphate-buffered saline (PBS). Cell suspensions of approximately 200,000 cells were fixed with 4% paraformaldehyde for 30 minutes on ice. Cells were spun down, washed in PBS, and suspended in 70% ethanol and stored at −20°C for subsequent batched analyses. […] All procedures were performed on ice and all centrifugations were done at 400 g for 5 minutes at 4°C. The pellet was hydrated overnight in 1 ml sterile, distilled water to partially reverse the alcohol fixation. After incubation, samples were centrifuged and then resuspended in 1 ml PBS/2% bovine serum albumin (BSA) and incubated for 30 minutes to block nonspecific antibody binding. Following centrifugation, unlabeled anti-DNMT1 antibody [EPR 3522] […] Samples were washed 3 times: each wash was a 10-minute incubation with 1 ml PBS/2% BSA followed by centrifugation. After the third wash, CD64-Alexa Fluor 488 (5 μl/test; BioLegend; catalog no. 305010), Cyclin A2-PE (4μl/test; Beckman Coulter; catalog no. B15092), CD33-APC/Cy7 (5 μl/test; BioLegend; catalog no. 366614), and F(ab′)2-goat anti-rabbit IgG (H+L) Alexa Fluor 647 (0.0938 μg/test; Life Technologies; catalog no. A21246) were added in a final volume of 100 μl and incubated for 1 hour. After the incubation and without washing, 3.5 ml PBS containing 0.5 μg/ml DAPI was added to each sample. All samples were analyzed on an Attune NxT Acoustic Focusing Cytometer (Life Technologies) at a flow rate of 500 μl per minute. Compensation was performed with CompBeads Set Anti-Mouse Ig, κ (BD Biosciences; catalog no. 552843) and Flow Cytometry Protein G Antibody Binding Beads (Bangs Laboratories, Inc.; catalog no. 554/11863).
# Data were normalized to the instrument using 8-peak SPHERO Rainbow Calibration Particles (Spherotech; catalog no. RCP-30-5A). WinList 3D v8.0 (Verity Software House) was used for post-acquisition analysis. Doublet discrimination was performed using the DAPI area and peak signals. […]
# HbF = HbF levels by HPLC; type: in vivo, human
# Source text: Blood counts, blood chemistries, total bilirubin, HbF, LDH, and D-dimer levels were standard clinical pathology tests through the CLIA-certified Clinical Pathology Laboratory at the University of Illinois at Chicago. […] For quantification of F-cells by flow cytometry, peripheral blood samples were fixed and stained with phycoerythrin-conjugated anti-HbF (Caltag) per manufacturer’s instructions. A normal adult negative control and cord blood positive control were run with each Becton-Dickinson FacsCalibur (Sunnyvale, CA) analysis.
# [1] = Decitabine storage and solution stability; type: physicochemical; settings: 18 months at -20 °C
# [2] = human, po, 0.01 mg/kg
# Method: To ensure safety in case of this possibility, decitabine pharmacokinetics are measured after single dose oral administration of decitabine and THU.
# [3] = set-up: method as in ref 72 (a number printed in a supplementary file, which may have a reference list of its own: not looked up in the article's list); settings: cited from earlier work
# [4] = set-up: method as in ref 16 (a number printed in a supplementary file, which may have a reference list of its own: not looked up in the article's list); settings: decitabine 0.1-0.2mg/kg 1-2X/week, four SCD patients; cited from earlier work
# [5] = system: Friend erythroleukemia cells; set-up: method as in ref 48 (a number printed in a supplementary file, which may have a reference list of its own: not looked up in the article's list); settings: single exposure 0.4 µM; cited from earlier work
# THP1 = settings: 0.3 µM daily for 2-3 days; cited from earlier work
# [6] = system: Salmonella typhimurium tester strain TA100; set-up: method as in ref 78 (a number printed in a supplementary file, which may have a reference list of its own: not looked up in the article's list); settings: cited from earlier work
# [7] = system: multiple intestinal adenomas; set-up: method as in ref 90 (a number printed in a supplementary file, which may have a reference list of its own: not looked up in the article's list); settings: cited from earlier work
# lung tumor = system: lung tumor; set-up: method as in ref 91 (a number printed in a supplementary file, which may have a reference list of its own: not looked up in the article's list); settings: cited from earlier work
# testicular cancer = system: testicular cancer; set-up: method as in ref 92 (a number printed in a supplementary file, which may have a reference list of its own: not looked up in the article's list); settings: 20% incidence in controls; cited from earlier work
# immortal phenotype = system: immortal phenotype; set-up: method as in ref 93 (a number printed in a supplementary file, which may have a reference list of its own: not looked up in the article's list); settings: cited from earlier work
# [8] = set-up: method as in ref 99 (a number printed in a supplementary file, which may have a reference list of its own: not looked up in the article's list); settings: cited from earlier work
# [9] = cited from earlier work
# [10] = cited from earlier work; remark: listed apart in the source
# [11] = Adverse events (CTCAE v 4.0), phase 1 trial NCT01685515 in SCD adults; settings: cohorts 1-5
# Source text: The primary endpoint was ≥ grade 3 non-hematologic toxicity.
# For statistical comparisons of adverse events (AEs) between placebo and each dose group, we performed exact tests of the null hypothesis that the rate parameters of Poisson distributed AEs are equal. Relative risks are given as the ratio of such rate parameters. Thus, differences are insignificant if relative risks confidence intervals include 1. The R function poisson.test(), an exact test, was used. Pain, the most frequent AE, was analyzed similarly.
# [12] = per patient, SC 0.2 mg/kg 2x/week, 0.2 mg/kg
smiles,measurement,setting,value
"Nc1ncn([C@H]2C[C@H](O)[C@@H](CO)O2)c(=O)n1 [decitabine, 5-aza-2’-deoxycytidine]",DNMT1 protein decrease from baseline in PBMC,"DNMT1; decitabine 0.08 mg/kg (cohort 4) after THU 10 mg/kg 2X/week, all patients",approximately 50%
same,DNMT1 protein decrease from baseline in PBMC,"DNMT1; decitabine […] (cohort 5) after THU 10 mg/kg 2X/week, 2 of the 3 patients",> 75%
same,DNMT1 protein decrease from baseline in PBMC,DNMT1; lower decitabine doses (cohorts 1-3),not in patients with lower decitabine doses
same,HbF% increases by HPLC,HbF; decitabine 0.08 mg/kg and […] (cohorts 4 and 5),increases by HPLC were observed
same,HbF% increases by HPLC,HbF; other decitabine dose levels (cohorts 1-3),not with other decitabine dose levels
same,drug substance stability on storage,[1],"no change in appearance, assay or impurities"
same,Cmax,[2],≤ 0.74 nM
same,Max F-cell%,"[3]; SC decitabine, mean ± SD, r3 HU non-responders (n=3), r4 HU responders (n=5), r5 all patients (n=8)",55.1 ± 11.1% and 81.2 ± 4.4% and 71.4 ± 6.5%
same,recovery from neutropenia,[3]; all subjects,within a week
same,Pre-tx HbF%,"[3]; baseline, mean ± SD, r3 HU non-responders, r4 HU responders, r5 all patients",2.4 ± 1.6% and 9.0 ± 2.5% and 6.5 ± 1.4%
same,local toxicity at SQ injection sites,[3],No local toxicity
same,bone marrow aspirate spicule cellularity with treatment,[3]; four subjects,no appreciable decrease
same,"Total Hb, peak","[3]; mean ± 2SD, pre-treatment 7.6 ± 2",9.6 ± 1.8
same,"Adh. to laminin, Pretherapy","[3]; mean ± SE, baseline",3470 ± 500 RBCs/mm^2
same,"Adhesion to TSP, Pretherapy","[3]; mean ± SE, baseline",1570 ± 170 RBCs/mm^2
same,"CRP, Pretherapy","[3]; mean ± SE, baseline",1.25 ± 0.27 mg/dL
same,"D-Dimer, Pretherapy","[3]; mean ± SE, baseline",490 ± 90 ng/mL
same,"F1+2, Pretherapy","[3]; mean ± SE, baseline",1.75 ± 0.22 nmol/L
same,"TAT, Pretherapy","[3]; mean ± SE, baseline",7.0 ± 1.7 µg/L
same,"VWFpp, Pretherapy","[3]; mean ± SE, baseline",196 ± 26 u/dL
same,"sVCAM, Pretherapy","[3]; mean ± SE, baseline",1170 ± 140 ng/mL
same,"Adh. to laminin, Post Cycle 1",[3]; mean ± SE,1950 ± 300 RBCs/mm^2
same,"Adh. to laminin, Post Cycle 2",[3]; mean ± SE,1570 ± 210 RBCs/mm^2
same,"Adhesion to TSP, Post Cycle 1",[3]; mean ± SE,690 ± 150 RBCs/mm^2
same,"Adhesion to TSP, Post Cycle 2",[3]; mean ± SE,910 ± 160 RBCs/mm^2
same,"CRP, Post Cycle 1",[3]; mean ± SE,1.19 ± 0.34 mg/dL
same,"CRP, Post Cycle 2",[3]; mean ± SE,0.82 ± 0.26 mg/dL
same,"D-Dimer, Post Cycle 1",[3]; mean ± SE,320 ± 50 ng/mL
same,"D-Dimer, Post Cycle 2",[3]; mean ± SE,300 ± 50 ng/mL
same,"F1+2, Post Cycle 1",[3]; mean ± SE,1.56 ± 0.16 nmol/L
same,"F1+2, Post Cycle 2",[3]; mean ± SE,1.41 ± 0.15 nmol/L
same,"TAT, Post Cycle 1",[3]; mean ± SE,8.6 ± 2.3 µg/L
same,"TAT, Post Cycle 2",[3]; mean ± SE,5.2 ± 0.9 µg/L
same,"VWFpp, Post Cycle 1",[3]; mean ± SE,156 ± 28 u/dL
same,"VWFpp, Post Cycle 2",[3]; mean ± SE,144 ± 13 u/dL
same,"sVCAM, Post Cycle 1",[3]; mean ± SE,930 ± 100 ng/mL
same,"sVCAM, Post Cycle 2",[3]; mean ± SE,840 ± 100 ng/mL
same,"nadir ANC, NCI grade 4 neutropenia",[3]; one patient,400 µL⁻¹
same,absolute reticulocyte count (ARC) during treatment,[3]; p=0.0006,decreased
same,total bilirubin during treatment,[3]; p=0.01,decreased
same,"nadir ANC, grade 3 neutropenia",[3]; two patients,800 µL⁻¹
same,Hemoglobin increases within 2-4 weeks,[4],> 1.5 g/dL
same,maximum hemoglobin increases,[4],3.5 to 5 g/dL
same,DNA methylation,[5],decreased DNA methylation
same,viability,[5],did not decrease viability
same,DNMT1 protein expression,THP1,profoundly decreased DNMT1 protein expression
same,phosphorylation of H2AX,THP1,did not increase phosphorylation of H2AX
same,viability,THP1,did not decrease the viability
same,mutagenicity,[6],weak mutagen
same,tumor development,[7],do not develop tumors
same,reduction in tumor incidence,lung tumor,23%
same,reduction in tumor multiplicity,lung tumor,42%
same,testicular cancer occurrence,testicular cancer,0%
same,immortal phenotype,immortal phenotype,reversed the immortal phenotype
same,"testicular weight, sperm counts and fertility",[8],"dose-dependent decrease in testicular weight, decline in sperm counts and reduced fertility"
same,greater decitabine exposure in rodents versus human dose for dose,[9],more than 100 fold
same,"total hemoglobin (Hb), peak","[10]; SC 0.2 mg/kg 2x/week for 12 weeks, five patients, baseline 7.88 ± 0.88",9.04 ± 0.77 g/dL
same,Absolute Retic count B/L,"[10]; baseline, per patient",1.65e+11 L⁻¹ and 1.55e+11 L⁻¹ and 1.63e+11 L⁻¹ and 1.96e+11 L⁻¹ and 1.06e+11 L⁻¹
same,Annexin-V RBC B/L,"[10]; baseline, per patient",0% and 2% and 0.6% and 3.4% and 0.8%
same,EPO B/L,"[10]; baseline, per patient",197.8 mIU/ml and 25 mIU/ml and 241.4 mIU/ml and 186 mIU/ml and 86.6 mIU/ml
same,HbF B/L,"[10]; baseline, per patient",7 g/dL and 0.1 g/dL and 2.8 g/dL and 4.8 g/dL and 3.6 g/dL
same,Hemoglobin B/L,"[10]; baseline, per patient",8.8 g/dL and 10.7 g/dL and 6.1 g/dL and 7.8 g/dL and 6 g/dL
same,Indirect Bilirubin B/L,"[10]; baseline, per patient",25.7 µmol/L and 104.3 µmol/L and 89 µmol/L and 33 µmol/L and 20 µmol/L
same,Normochromic Normovolumetric Cells B/L,"[10]; baseline, per patient",36% and 67.4% and 65.4% and 63.9% and 61.2%
same,Serum LDH B/L,"[10]; baseline, per patient",893 U/L and 596 U/L and 458 U/L and 192 U/L and 258 U/L
same,"genotoxicity (erythrocyte micronucleus, VDJ recombination assay)",[10],without erythrocyte micronucleus or VDJ recombination assay evidence of genotoxicity
same,Increases in Hb achieved,[10]; in two of the five patients,≥ 1.5 g/dL
same,Absolute Retic count Nadir,[10]; [12],1.35e+11 L⁻¹ and 1.6e+11 L⁻¹ and 1.16e+11 L⁻¹ and 1.25e+11 L⁻¹ and 7.9e+10 L⁻¹
same,Absolute Retic count Wk 12,[10]; [12],1.35e+11 L⁻¹ and 1.6e+11 L⁻¹ and 1.16e+11 L⁻¹ and 1.45e+11 L⁻¹ and 7.9e+10 L⁻¹
same,Annexin-V RBC Nadir,[10]; [12],0% and 0.1% and 0.4%
same,Annexin-V RBC Wk 12,[10]; [12],0.5% and 0.7% and 0.1% and 2.6% and 1.1%
same,EPO Nadir,[10]; [12],117.2 mIU/ml and 17.1 mIU/ml and 131.4 mIU/ml and 180.7 mIU/ml and 71.5 mIU/ml
same,EPO Wk 12,[10]; [12],117.2 mIU/ml and 24.4 mIU/ml and 238.5 mIU/ml and 340.5 mIU/ml and 71.5 mIU/ml
same,HbF Peak,[10]; [12],7.5 g/dL and 0.7 g/dL and 3.5 g/dL and 5.6 g/dL and 4.1 g/dL
same,HbF Wk 12,[10]; [12],7.1 g/dL and 0.7 g/dL and 3.4 g/dL and 5.6 g/dL and 3.6 g/dL
same,Hemoglobin Peak,[10]; [12],9.4 g/dL and 11.8 g/dL and 7.7 g/dL and 8.7 g/dL and 7.6 g/dL
same,Hemoglobin Wk 12,[10]; [12],9.4 g/dL and 11.8 g/dL and 6.4 g/dL and 8.7 g/dL and 7.5 g/dL
same,Indirect Bilirubin Nadir,[10]; [12],27.4 µmol/L and 83.8 µmol/L and 48 µmol/L and 18 µmol/L and 8 µmol/L
same,Indirect Bilirubin Wk 12,[10]; [12],30.8 µmol/L and 83.8 µmol/L and 48 µmol/L and 33 µmol/L and 10 µmol/L
same,Neutrophil count Nadir,[10]; [12],2.82e+09 L⁻¹ and 2.2e+09 L⁻¹ and 5.2e+09 L⁻¹ and 2.1e+09 L⁻¹ and 4.5e+09 L⁻¹
same,Neutrophil count Wk 12,[10]; [12],4.62e+09 L⁻¹ and 2.2e+09 L⁻¹ and 7.9e+09 L⁻¹ and 1.03e+10 L⁻¹ and 5.7e+09 L⁻¹
same,Normochromic Normovolumetric Cells Peak,[10]; [12],45.9% and 70% and 70.9% and 72.4%
same,Normochromic Normovolumetric Cells Wk 12,[10]; [12],45.9% and 69% and 70.5% and 66.4% and 68.1%
same,Platelet count Peak,[10]; [12],2.96e+11 L⁻¹ and 1.038e+12 L⁻¹ and 1.265e+12 L⁻¹ and 8.01e+11 L⁻¹ and 1.301e+12 L⁻¹
same,Platelet count Wk 12,[10]; [12],2.81e+11 L⁻¹ and 1.038e+12 L⁻¹ and 1.265e+12 L⁻¹ and 7.56e+11 L⁻¹ and 1.301e+12 L⁻¹
same,Serum LDH Nadir,[10]; [12],660 U/L and 541 U/L and 260 U/L and 149 U/L and 204 U/L
same,Serum LDH Wk 12,[10]; [12],660 U/L and 556 U/L and 324 U/L and 167 U/L and 204 U/L
same,grade 4 AEs,[11],no grade 4 AEs
